Assay results reported in US9028845B2, “Chimeric immunomodulatory compounds and methods of using the same-IV” (Dynavax Technologies Corporation, priority 2001, dated 2015).
“Also recorded” adds a separate entry of the source.

Legend:
[1] = tested on: PBMCs; test: Human PBMC proliferation assay (3H-thymidine incorporation); type: cell-based; conditions: Experiment A; for mean cpm: 2 μg/ml
[2] = tested on: CD19+ B cells; test: Human B cell proliferation assay (3H-thymidine incorporation); conditions: 2 μg/ml
[3] = tested on: human PBMCs; test: Human PBMC cytokine response assay (IFN-γ and IFN-α in cell-free medium by ELISA), with or without cPLGA; type: cell-based;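 for IFN-α (pg/ml) mean: 20 µg/mL compound for 24 hours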;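 for IFN-γ (pg/ml) mean: 20 µg/mL compound for 24 hours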
[4] = tested on: mice; test: Serum cytokines (IL-12 p40, IL-6, TNF-α) after subcutaneous injection in mice; type: in vivo; conditions: 20 ug subcutaneous, blood 2 hours later
Protocol: Blood was collected 2 hours later. For the LPS positive control group, mice were injected intraperitoneally with a 200 ul volume, and blood was collected 1.5 hours later (i.e., at the peak of LPS induced TNF-α activity). The blood was clotted and the serum was prepared and stored at −80° C. until assayed. Serum cytokines were assayed using Biosource cytoscreen kits for TNF-α and Pharmingen antibody pairs for mIL-6 and mIL-12. All samples were assayed in duplicate.

[5] = B cells, Donor 146, Experiment A
[6] = B cells, Donor 147, Experiment A
[7] = Table 25, mean of donors 28250-28253
[8] = mean of Donors 1-2, 20 μg/ml, 24 h
[9] = mean of Donors 3-4, 20 μg/ml, 24 h

5′-TCGTCGA-3′ [Compound P-1, reference compound]
cpm1 ([1]; Donor 146, 2 μg/ml): 9724 cpm | cpm2 ([1]; Donor 146, 2 μg/ml): 3041 cpm | cpm3 ([1]; Donor 146, 2 μg/ml): 2425 cpm | mean cpm ([1]; Donor 146 mean): 5063 cpm | cpm1 ([1]; Donor 147, 2 μg/ml): 1706 cpm | cpm2 ([1]; Donor 147, 2 μg/ml): 1960 cpm | cpm3 ([1]; Donor 147, 2 μg/ml): 324 cpm | mean cpm ([1]; Donor 147 mean): 1330 cpm | mean of both ([1]; mean of Donors 146 and 147, 2 μg/ml): 3197 cpm | B cell proliferation, in words ([2]; 48 h plus 8 h 3H-thymidine pulse): little to no B cell proliferation | cpm1 [2, 5]: 761 cpm | cpm2 [2, 5]: 608 cpm | cpm3 [2, 5]: 721 cpm | mean cpm ([2]; B cells, Donor 146 mean, Experiment A): 697 cpm | cpm1 [2, 6]: 569 cpm | cpm2 [2, 6]: 460 cpm | cpm3 [2, 6]: 687 cpm | mean cpm ([2]; B cells, Donor 147 mean, Experiment A): 572 cpm | mean of both ([2]; B cells, mean of Donors 146 and 147, Experiment A): 634 cpm | IFN-α (pg/ml) Donor 1 ([3]; Donor 1, 20 μg/ml, 24 h): 0 pg/mL | IFN-γ (pg/ml) Donor 1 ([3]; Donor 1, 20 μg/ml, 24 h): 8 pg/mL | IFN-α (pg/ml) Donor 2 ([3]; Donor 2, 20 μg/ml, 24 h): 0 pg/mL | IFN-γ (pg/ml) Donor 2 ([3]; Donor 2, 20 μg/ml, 24 h): 0 pg/mL | IFN-α (pg/ml) Donor 3 ([3]; Donor 3, 20 μg/ml, 24 h): 0 pg/mL | IFN-γ (pg/ml) Donor 3 ([3]; Donor 3, 20 μg/ml, 24 h): 1 pg/mL | IFN-α (pg/ml) Donor 4 ([3]; Donor 4, 20 μg/ml, 24 h): 32 pg/mL | IFN-γ (pg/ml) Donor 4 ([3]; Donor 4, 20 μg/ml, 24 h): 4 pg/mL | IFN-a ([3]; Table 25, donor 28250): 16 pg/mL | IFN-g ([3]; Table 25, donor 28250, polynucleotides/spacers at amounts equivalent to the CIC, spacers alone 9 uM): 54 pg/mL | IFN-a ([3]; Table 25, donor 28251): 16 pg/mL | IFN-g ([3]; Table 25, donor 28251): 21 pg/mL | IFN-a ([3]; Table 25, donor 28252): 16 pg/mL | IFN-g ([3]; Table 25, donor 28252): 56 pg/mL | IFN-a ([3]; Table 25, donor 28253): 16 pg/mL | IFN-g ([3]; Table 25, donor 28253): 1 pg/mL | IFN-a mean [3, 7]: 16 pg/mL | IFN-g mean [3, 7]: 33 pg/mL | IFN-α (pg/ml) mean [3, 8]: 0 pg/mL | IFN-γ (pg/ml) mean [3, 8]: 4 pg/mL | IFN-α (pg/ml) mean [3, 9]: 16 pg/mL | IFN-γ (pg/ml) mean [3, 9]: 2 pg/mL | immunomodulatory activity (IFN-γ / IFN-α secretion), in words ([3]; used alone (no cPLGA)): no activity; also recorded: did not have immunomodulatory activity | induction of serum IL-12 p40, IL-6 and TNF-α, in words [4]: inactive
